Results from patent US20050113420A1, “Methionine aminopeptidase inhibitor” (priority 2002, published 2005).

Key:
EcMetAP = target: T1, EcMetAP (Escherichia coli, UniProt P0AE18); test: EcMetAP inhibition, Met-S-C-Phe thiopeptolide/DTNB assay at 412 nm; assay type: biochemical, E. coli; details: for IC50: Co-loaded enzyme, estimated IC50 at eight inhibitor concentrations, read-out: IC50(μM) EMetAP
T1 construct: made in house; host or cells: E. coli
Description: EcMetAP was cloned and overexpressed in E. coli, and purified by (NH4)2SO4 precipitation and Q-Sepharose column separation to give apo-EcMetAP.
(§1) Hydrolysis of the synthesized Met-S-C-Phe thiopeptolide substrate generates a free thiol group, which reacts with excessive DTNB instantly to produce a highly chromogenic product, 3-carboxyl-4-nitrothiophenol (ε412=13,600 M^−1cm^−1). Therefore, the enzymatic reaction catalyzed by MetAP can be continuously monitored at 412 nm on a SpectraMAX 340 microplate reader.
(§2) Employed conventional screening method (Anal Biochem. 2000, 280: 159-65)
(§3) All the compounds were initially screened at the multiple concentrations 2 μg/mL, 20 μg/mL, 100 μg/mL. When the inhibitory activities of the compounds were larger than 50%, their estimated IC50 value were determinated at eight inhibitor concentrations.

hMetAP1 = hMetAP1 (Homo sapiens, UniProt P53582); test: hMetAP1 inhibition; assay type: biochemical
Description: as §1, §2, §3

[1] = target: type 2 methionine aminopeptidase (Homo sapiens, UniProt P50579); details: covalent binding inhibitors; cited from earlier work
type 2 methionine aminopeptidase, sequence (P50579 whole entry): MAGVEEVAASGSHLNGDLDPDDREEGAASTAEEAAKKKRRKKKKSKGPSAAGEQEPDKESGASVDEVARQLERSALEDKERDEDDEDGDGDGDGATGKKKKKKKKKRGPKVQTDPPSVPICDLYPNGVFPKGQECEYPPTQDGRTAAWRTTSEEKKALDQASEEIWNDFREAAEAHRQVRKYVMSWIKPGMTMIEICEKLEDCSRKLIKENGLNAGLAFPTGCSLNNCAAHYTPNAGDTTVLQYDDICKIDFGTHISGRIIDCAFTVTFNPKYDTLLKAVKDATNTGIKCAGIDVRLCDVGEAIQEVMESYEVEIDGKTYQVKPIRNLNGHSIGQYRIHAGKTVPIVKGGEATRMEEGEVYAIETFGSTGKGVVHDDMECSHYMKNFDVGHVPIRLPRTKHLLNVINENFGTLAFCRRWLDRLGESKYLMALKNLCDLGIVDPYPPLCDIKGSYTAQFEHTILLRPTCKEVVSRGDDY

EcMetAP1 = EcMetAP1 (Escherichia coli, UniProt P0AE18); details: read-out: IC50 EcMetAP1; cited from earlier work
EcMetAP1, sequence (P0AE18 whole entry): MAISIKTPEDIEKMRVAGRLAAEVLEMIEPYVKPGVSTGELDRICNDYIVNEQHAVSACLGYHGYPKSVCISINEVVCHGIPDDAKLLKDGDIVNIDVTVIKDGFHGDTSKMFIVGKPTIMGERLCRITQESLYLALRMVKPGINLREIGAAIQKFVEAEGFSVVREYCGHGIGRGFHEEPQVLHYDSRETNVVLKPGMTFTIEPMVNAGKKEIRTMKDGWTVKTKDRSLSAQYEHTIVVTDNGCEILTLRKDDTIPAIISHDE

T1 sequence (P0AE18 whole entry): as above

Row | Compound | IC50 (EcMetAP) [µM] | IC50 (hMetAP1) [µM] | further results
1 | O=C(Nc1nccs1)c1ncccc1OCc1ccccc1 [Compound 47] | 5.31 | 7.8 | –
2 | COc1ccnc(C(=O)Nc2nccs2)c1 [Compound 30] | 9.22 | – | –
3 | O=C(Oc1cccnc1C(=O)Nc1nccs1)c1ccc(F)cc1 [Compound 46] | 1.31 | 7 | –
4 | CO[C@@H]1[C@H](OC(=O)NC(=O)CCl)CC[C@]2(CO2)[C@H]1[C@@]1(C)O[C@@H]1CC=C(C)C [TNP-470] | – | – | IC50 MetAPs [1]: in the nM range
5 | CO[C@@H]1[C@H](OC(=O)/C=C/C=C/C=C/C=C/C(=O)O)CC[C@]2(CO2)[C@H]1[C@@]1(C)O[C@@H]1CC=C(C)C [fumagillin] | – | – | IC50 MetAPs [1]: in the nM range
6 | AHHPA-Ala-Leu-Val-Phe-OMe | – | – | IC50 (EcMetAP1): 5 µM
7 | O=C(Nc1nccs1)c1ccc2ccccc2n1 [Compound 27] | 51 | – | –
8 | O=C(Oc1cccnc1C(=O)Nc1nccs1)c1ccccc1 [Compound 36] | 1.1 | 28.7 | –
9 | O=C(Oc1cccnc1C(=O)Nc1nccs1)c1ccc(F)c(Br)c1 [Compound 45] | 1.35 | 17.4 | –
10 | O=C(Nc1ncc(Br)s1)c1ccccn1 [Compound 17] | 6 | – | –
11 | O=C(Oc1cccnc1C(=O)Nc1nccs1)c1cccc([N+](=O)[O-])c1 [Compound 41] | 1.91 | 7.3 | –
12 | Nc1cccnc1C(=O)Nc1nccs1 [Compound 50] | 5.56 | 11 | –
13 | COc1ccccc1C(=O)Oc1cccnc1C(=O)Nc1nccs1 [Compound 37] | 1.9 | 15.4 | –
14 | COc1cccnc1C(=O)Nc1nccs1 [Compound 35] | 4.49 | 20.9 | –
15 | O=C(Nc1cccnc1C(=O)Nc1nccs1)c1ccccc1 [Compound 51] | 0.14 | – | –
16 | O=C(Nc1nccs1)c1cc(Cl)ccn1 [Compound 16] | 4.84 | – | –
17 | Nc1ccccc1C(=O)Nc1nccs1 [Compound 7] | – | – | inhibition at 20 µg/mL (EcMetAP; read-out: inhibition of EMetAP): 30%
18 | Cc1nc(C(=O)Nc2nccs2)cs1 [Compound 55] | 0.4 | – | –
19 | CC(C)(C)OC(=O)Nc1cccnc1C(=O)Nc1nccs1 [Compound 52] | 1.25 | – | –
20 | O=C(Nc1nccs1)c1ncccc1O [Compound 31] | 2.33 | – | –
21 | COc1ccccc1/C=C/C(=O)Oc1cccnc1C(=O)Nc1nccs1 [Compound 44] | 1.8 | – | –
22 | CC(=O)Oc1cccnc1C(=O)Nc1nccs1 [Compound 34] | 8.2 | 29 | –
23 | O=C(Nc1nccs1)c1cccc(CO)n1 [Compound 32] | 5.82 | – | –
24 | O=C(Nc1cccnc1C(=O)Nc1nccs1)c1ccc(F)cc1 [Compound 53] | 0.05 | – | –
